ChEMBL document CHEMBL1201862, “PubChem BioAssay data set” (2004)
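The compound was tested at five concentrations on cells cultured in 96-well plates, with a 48-hour exposure period. The concentration for 50% growth inhibition is given as GI50.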 Active and inactive are the calls of the source. Rule as the data show it: active = GI50 up to about 1.1 µM and inactive = higher.

How the values were obtained:
Assay in all cases: NCI tumour cell line growth inhibition, 48 h
NCI/ADR-RES = system: NCI/ADR-RES
MDA-MB-435 = system: MDA-MB-435
MDA-N = system: MDA-N
ACHN = system: ACHN
786-0 = system: 786-0
BT-549 = system: BT-549
LXFL 529 = system: LXFL 529
RXF 631 = system: RXF 631
DLD-1 = system: DLD-1

Compound	GI50 (NCI/ADR-RES)	GI50 (MDA-MB-435)	GI50 (MDA-N)	GI50 (ACHN)	GI50 (786-0)	GI50 (BT-549)	GI50 (LXFL 529)	GI50 (RXF 631)	GI50 (DLD-1)
CC(C)(C)OC(=O)NC(Cc1c[nH]cn1)C(=O)N1CCCC1C(N)=O (configuration not stated)	> 100 µM (inactive)	> 100 µM (inactive)	> 100 µM (inactive)	> 100 µM (inactive)	> 100 µM (inactive)	> 100 µM (inactive)			
O=C(Nc1cccc2ccccc12)Oc1ccccc1C1CCCCC1							18.3 µM (inactive)	19.5 µM (inactive)	15.2 µM (inactive)
CNC(=O)N(C)COC				> 100 µM (inactive)			> 100 µM (inactive)		> 100 µM (inactive)
C=CCNC(=O)CN(CC(=O)OC)C1CCCCC1N(CC(=O)OC)CC(=O)OC (configuration not stated)	> 100 µM (inactive)	> 100 µM (inactive)	> 100 µM (inactive)	> 100 µM (inactive)		> 100 µM (inactive)			
C#CC[N+](CCO)(CCO)CCCCCCCCCCCCCCCCCC	20.2 µM (inactive)								9.25 µM (inactive)
CC(=O)O[C@@H]1CN(S(=O)(=O)c2ccc(C)cc2)C[C@@H]1C1CCCCC1	20.6 µM (inactive)	18.7 µM (inactive)	17.1 µM (inactive)	37.5 µM (inactive)					
O=c1c2cccnc2oc2c(Cl)cc(-c3nnn[nH]3)cc12	> 100 µM (inactive)	> 100 µM (inactive)	> 100 µM (inactive)	> 100 µM (inactive)					
CC(=O)OC1C(O)C(C)OC(OC(=O)C2CCC3C(C2)OC2(CC(OC(=O)/C=C/c4ccccc4)C(C)CO2)C32CO2)C1OC1OC(C)C(O)C(O)C1O (configuration not stated)	21.7 µM (inactive)								0.335 µM (active)
CC(C)CNC1=NCC(C)S1 (configuration not stated)		> 100 µM (inactive)	> 100 µM (inactive)	> 100 µM (inactive)		> 100 µM (inactive)			
CC(C)(C)OC(=O)NC1CCC(C(C)(C)C)CC1 (configuration not stated)	99.1 µM (inactive)								> 100 µM (inactive)
O=C(O)CN1CCN(CC(=O)O)CCN(CC(=O)O)CC1		30.8 µM (inactive)	3.7 µM (inactive)	> 100 µM (inactive)		> 100 µM (inactive)			
C=C(/C=C/C=C(\C)CCC=C(C)C)[C@@H]1CC[C@]2([C@H](CCCO)/C(=C(/C)C=O)CC[C@]2(C)O)[C@@H]1O				> 100 µM (inactive)			19.1 µM (inactive)		18.4 µM (inactive)
CO[C@H]1ON=C(c2c(C)cc(C)cc2C)[C@@H]1C1(c2ccccc2)ON=C(c2c(C)cc(C)cc2C)O1 (some centres not stated)				> 100 µM (inactive)			> 100 µM (inactive)		> 100 µM (inactive)
CC1OC(CO)(n2cnc3c(N)ncnc32)C(O)C1O (configuration not stated)	> 100 µM (inactive)								> 100 µM (inactive)
Cc1cn(Cc2cn(CC3OC(n4cc(C)c(=O)[nH]c4=O)CC3O)nn2)c(=O)[nH]c1=O (configuration not stated)	> 100 µM (inactive)	> 100 µM (inactive)	> 100 µM (inactive)	> 100 µM (inactive)		> 100 µM (inactive)			
Cn1c(=O)c2nc(N3CCCCC3)cnc2n(C)c1=O				> 100 µM (inactive)			> 100 µM (inactive)		> 100 µM (inactive)
C=C1C(=O)OC2C=C(C)CC3C=C(CCC=C(C)CCC12)C(=O)O3 (configuration not stated)	62.8 µM (inactive)								54.5 µM (inactive)
